# Assays:
# adenosine A2 receptor = biological target: T1, adenosine A2 receptor (Rattus norvegicus, UniProt P30543); assay: Adenosine Receptor Binding - A2 Receptor Affinity (RBA2), [3H]NECA displacement in striatal membranes; conditions: 4 nM [3H]NECA, 50 nM N6-cyclopentyladenosine, 60 minutes at 25°C, read-out: RBA-2 (IC50, A2 receptor affinity)
# T1 construct: Brains were thawed and then kept on ice while the striata were dissected out; tissue Pel-Freez (Rogers, Arkansas); host or cells: rat striatum (membranes)
# T1 sequence (P30543 whole entry): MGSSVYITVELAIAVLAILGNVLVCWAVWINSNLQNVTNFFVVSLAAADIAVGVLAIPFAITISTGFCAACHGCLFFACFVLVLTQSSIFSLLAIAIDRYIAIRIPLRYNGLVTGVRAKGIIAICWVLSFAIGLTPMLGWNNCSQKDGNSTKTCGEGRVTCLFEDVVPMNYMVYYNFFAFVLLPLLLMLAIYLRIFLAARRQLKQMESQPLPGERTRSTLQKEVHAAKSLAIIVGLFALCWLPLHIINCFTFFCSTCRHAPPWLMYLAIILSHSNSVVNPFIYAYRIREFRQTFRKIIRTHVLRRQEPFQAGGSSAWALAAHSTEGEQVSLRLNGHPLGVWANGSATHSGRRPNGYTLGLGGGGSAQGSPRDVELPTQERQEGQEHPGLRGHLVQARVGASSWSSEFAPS
# Protocol: Brains from 200-500 g mixed sex Sprague-Dawley rats were purchased from Pel-Freez (Rogers, Arkansas). Fresh brains from male Long-Evans hooded rats (Blue Spruce Farms, Altamont, NY) gave essentially identical results. Brains were thawed and then kept on ice while the striata were dissected out. Striata were disrupted in 10 vol of ice-cold 50 mM Tris·HCl (pH 7.7 at 25°C, pH 8.26 at 5°C) (Tris) for 30 seconds in a Polytron PT―10 (Brinkmann) at setting 5. The suspension was centrifuged at 50,000 xg for ten minutes, the supernatant discarded, the pellet resuspended in 10 vol ice-cold Tris as above, recentrifuged, resuspended at 1 g/5 ml, and stored in plastic vials at -70°C (stable for at least six months). When needed, tissue was thawed at room temperature, disrupted in a Polytron, and kept on ice until used.
# All incubations were for 60 minutes at 25°C in 12 x 75 mm glass tubes containing 1 ml Tris with 5 mg original tissue weight of rat weight of rat striatal membranes, 4 nM [^3H]-N-ethyl adenosine-5'-carboxamide ([^3H]NECA), 50 nM N^s-cyclopentyladenosine (to eliminate A1 receptor binding), 10 mM MgCI2, 0.1 units/ml of adenosine deaminase and 1% dimethylsulfoxide. N^6-Cyclopentyladenosine was dissolved at 10 mM in 0.02 N HCI and diluted in Tris. Stock solutions and dilutions of N^6-cyclopentyladenosine could be stored at -20°C for several months. Test compounds were dissolved at 10 mM in dimethylsulfoxide on the same day as the experiment, and diluted in dimethylsulfoxide to 100x the final incubation concentration. Control incubations received an equal volume (10 µl) of dimethylsulfoxide; the resulting concentration of dimethylsulfoxide had no effect on binding. [^3H]NECA was diluted to 40 nM in Tris. The membrane suspension (5 mg/0.79 ml) contained sufficient MgC12 and adenosine deaminase to give 10 mM and 0.1 units/ml, respectively, final concentration in the incubation. […] After all additions, the rack of tubes was vortexed, and the tubes were then incubated for 60 min at 25°C in a shaking water bath. The rack of tubes was vortexed an additional time halfway through the incubation.
# Incubations were terminated by filtration through 2.4 cm GF/B filters under reduced pressure. Each tube was filtered as follows: the contents of the tube were poured onto the filter, 4 ml of ice-cold Tris were added to the tube and the contents poured onto the filter, and the filter was washed twice with 4 ml of ice-cold Tris. The filtration was complete in about 12 seconds. Filters were put in scintillation vials, 8 ml of Formula 947 scintillation fluid added, and the vials left overnight, shaken, and counted in a liquid scintillation counter at 40% efficiency.
# Nonspecific binding was defined as binding in the presence of […] N^6-cyclopentyladenosine, and specific binding was defined as total binding minus nonspecific binding. The IC50 was calculated by weighted nonlinear least squares curve-fitting to the mass action equation. [formula] • where Y is cpm bound • T is cpm total binding without drug • S is cpm specific binding without drug • D is the concentration of drug • and K is the IC50 of the drug Weighting factors were calculated under the assumption that the standard deviation was proportional to the predicted value of Y. Nonspecific binding was treated as a very large (infinite) concentration of drug in the computer analysis.
# [1] = system: mice falling off the inverted screen; assay: Mouse Activity and Screen Test Procedure (MAST): screen test (ST); type: in vivo, Swiss-Webster male mice; conditions: one hour postinjection, percent of mice falling off the screen
# Excerpt: The compounds of the invention are new chemical substances which are useful as pharmaceutical agents for the treatment of psychoses. The antipsychotic activity of representative compounds of the invention was established by the Mouse Activity and Screen Test Procedure (MAST) described below.
# (§1) Nine unfasted Swiss-Webster male mice weighing 20-30 g are equally divided into three groups for each drug dose to be tested. There is, data for each dose level was generated by three separate groups of three mice each.
# (§2) A minimum of three dose levels (10, 30, and 100 mg/kg) are tested for each drug. Treatments are administered intraperitoneally one hour prior to testing. All dosages are calculated as parent compound and given in volumes of 10 ml/kg. Compounds are dissolved or suspended in 0.2% Methocel. Control animals are injected with Methocel.
# Testing: A two part testing procedure is started one hour postinjection. First, the screen test (ST) is performed (see Pharmac. Biochem. Behav. 6,351-353,1977). Briefly this test consists of placing mice on individual wire screens which are then rotated 180 degrees at the start of a 60 second observation period. The number of mice falling off the inverted screen is recorded.
# (§3) Data: The data obtained from the screen test are expressed as percent of mice falling off the screen. Data derived from locomotor activity of drug treated mice are compared to the activity of vehicle treated animals and are expressed as percent inhibition of spontaneous locomotion. All percentages reported for inhibition of locomotion (LI) are based upon data accumulated for one hour. Both phases of testing are graded: A=60-100%; C=31-59%; and N=0-30%. An overall dose rating is obtained by the following criteria:
# LAD refers to the lowest dose at which an A rating is achieved. […] Utilizing this procedure, an overall dose rating of A was obtained for the noted compound at the indicated dose. The compounds are identified in the Examples.
# spontaneous locomotion = assay: Mouse Activity and Screen Test Procedure (MAST): locomotor activity in actophotometer; type: in vivo, Swiss-Webster male mice; conditions: one hour prior to testing
# Protocol: as §1, §2
# The actophotometer consists of a cylindrical chamber whose center is occupied by another cylinder which contains the illumination for six photocells located on the perimeter of the chamber. Six light-beam interruptions equal one count. Locomotor activity is recorded by computer at ten minute intervals for 60 minutes.
# as §3, with “Both phases of testing are graded: A=60-100%; C=31-59%; and N=0-30%.” left out
# LAD refers to the lowest dose at which an A rating is achieved. […] The compounds are identified in the Examples.
SMILES,IC50 (adenosine A2 receptor),Screen Test Failure ([1]; 1 mg/kg intraperitoneally),Screen Test Failure ([1]; 3 mg/kg intraperitoneally),Screen Test Failure ([1]; 10 mg/kg intraperitoneally),Screen Test Failure ([1]; 30 mg/kg intraperitoneally),Screen Test Failure ([1]; 100 mg/kg intraperitoneally),Inhibition of Mouse Locomotion Activity (spontaneous locomotion; 1 mg/kg intraperitoneally),Inhibition of Mouse Locomotion Activity (spontaneous locomotion; 3 mg/kg intraperitoneally),Inhibition of Mouse Locomotion Activity (spontaneous locomotion; 10 mg/kg intraperitoneally),Inhibition of Mouse Locomotion Activity (spontaneous locomotion; 30 mg/kg intraperitoneally),Inhibition of Mouse Locomotion Activity (spontaneous locomotion; 100 mg/kg intraperitoneally)
Cc1ccc2c(c1C)OC(C)C(Nc1ncnc3c1ncn3[C@@H]1O[C@H](CO)[C@@H](O)[C@H]1O)C2 (stereo partly drawn) [Example 11],360 nM,0%,0%,11%,22%,67%,13%,27%,90%,95%,99%
COc1cc(OC)c2c(c1)OC(C)(C)CC2Nc1ncnc2c1ncn2[C@@H]1O[C@H](CO)[C@@H](O)[C@H]1O (stereo partly drawn) [Example 14],37900 nM,–,–,0%,0%,0%,–,–,8%,13%,2%

# The next lines start with results.
IC50 (adenosine A2 receptor),Screen Test Failure ([1]; 1 mg/kg intraperitoneally),Screen Test Failure ([1]; 3 mg/kg intraperitoneally),Screen Test Failure ([1]; 10 mg/kg intraperitoneally),Screen Test Failure ([1]; 30 mg/kg intraperitoneally),Screen Test Failure ([1]; 100 mg/kg intraperitoneally),SMILES,Inhibition of Mouse Locomotion Activity (spontaneous locomotion; 1 mg/kg intraperitoneally),Inhibition of Mouse Locomotion Activity (spontaneous locomotion; 3 mg/kg intraperitoneally),Inhibition of Mouse Locomotion Activity (spontaneous locomotion; 10 mg/kg intraperitoneally),Inhibition of Mouse Locomotion Activity (spontaneous locomotion; 30 mg/kg intraperitoneally),Inhibition of Mouse Locomotion Activity (spontaneous locomotion; 100 mg/kg intraperitoneally)
2940 nM,–,–,0%,0%,22%,"CC(C)(C)c1ccc2c(c1)OCC(Nc1ncnc3c1ncn3[C@@H]1O[C@H](CO)[C@@H](O)[C@H]1O)C2 (stereo partly drawn) [Example 13, N^6-[7-t-Butyl-3-chromanylamino)adenosine]",–,–,50%,82%,88%
86.5 nM,–,11%,22%,55%,–,OC[C@H]1O[C@@H](n2cnc3c(NC4CCSc5ccccc54)ncnc32)[C@H](O)[C@@H]1O (stereo partly drawn) [Example 15],–,88%,95%,97%,–
1390 nM,–,0%,22%,55%,–,"O=S1(=O)CCC(Nc2ncnc3c2ncn3[C@@H]2O[C@H](CO)[C@@H](O)[C@H]2O)c2ccccc21 (stereo partly drawn) [Example 16, N^6-[4-Benzothiopyran-1,1-dioxideamino]adenosine]",–,15%,69%,98%,–

# — EP0181109B1, “N6-benzopyrano- and benzothiopyrano-adenosines” (WARNER-LAMBERT COMPANY, priority 1984, dated 1986)
